Tests used:
[1] = 298.15 K; 101.33 kPa; Liquid
[2] = excess molar enthalpy (molar enthalpy of mixing); xn = mol fraction of the nth substance listed; conditions: 298.15 K, 101.33 kPa, Liquid, Flow calorimetry

CCCCCCCCCC [decane]
Conditions	mass density [kg/m3]
[1]	726.3

CCCCCCCCCCCC [dodecane]
Conditions	mass density [kg/m3]
[1]	745.32

CCCCCCC [heptane]
Conditions	mass density [kg/m3]
[1]	680.17

C=CCCCC [hex-1-ene]
Conditions	mass density [kg/m3]
[1]	668.73

C=CCCCC [hex-1-ene] + CCCCCCC
[2]
Conditions	excess molar enthalpy [kJ/mol]
x1 = 0.05	0.0111
x1 = 0.1	0.0212
x1 = 0.1499	0.0303
x1 = 0.1998	0.0376
x1 = 0.2496	0.0447
x1 = 0.2998	0.0505
x1 = 0.35	0.0549
x1 = 0.3984	0.0589
x1 = 0.4492	0.061
x1 = 0.5005	0.0614
x1 = 0.5498	0.0614
x1 = 0.6	0.0597
x1 = 0.6496	0.0566
x1 = 0.6992	0.0528
x1 = 0.7497	0.0474
x1 = 0.8	0.0413
x1 = 0.8499	0.0331
x1 = 0.9	0.0234
x1 = 0.95	0.0117

C=CCCCC [hex-1-ene] + CCCCCCCC
[2]
Conditions	excess molar enthalpy [kJ/mol]
x1 = 0.05	0.0114
x1 = 0.1	0.0222
x1 = 0.15	0.0326
x1 = 0.2036	0.0416
x1 = 0.2496	0.0483
x1 = 0.3	0.0549
x1 = 0.3497	0.06
x1 = 0.3998	0.0639
x1 = 0.45	0.0661
x1 = 0.5	0.0677
x1 = 0.5499	0.0673
x1 = 0.5994	0.0659
x1 = 0.65	0.0629
x1 = 0.6998	0.0587
x1 = 0.7501	0.0528
x1 = 0.8002	0.0453
x1 = 0.8499	0.0369
x1 = 0.9	0.0263
x1 = 0.95	0.0139

C=CCCCC [hex-1-ene] + CCCCCCCCCC
[2]
Conditions	excess molar enthalpy [kJ/mol]
x1 = 0.05	0.0161
x1 = 0.1	0.0304
x1 = 0.1503	0.043
x1 = 0.2001	0.0541
x1 = 0.2482	0.0643
x1 = 0.2997	0.073
x1 = 0.3504	0.0796
x1 = 0.3999	0.0852
x1 = 0.4508	0.0884
x1 = 0.4994	0.0907
x1 = 0.5501	0.0908
x1 = 0.5996	0.089
x1 = 0.6496	0.0855
x1 = 0.7004	0.0797
x1 = 0.7495	0.0721
x1 = 0.7998	0.0622
x1 = 0.8501	0.0511
x1 = 0.9	0.0361
x1 = 0.95	0.0191

C=CCCCC [hex-1-ene] + CCCCCCCCCCCC
[2]
Conditions	excess molar enthalpy [kJ/mol]
x1 = 0.0501	0.0214
x1 = 0.0999	0.0408
x1 = 0.15	0.0568
x1 = 0.1999	0.0726
x1 = 0.2521	0.0871
x1 = 0.2994	0.0985
x1 = 0.3494	0.108
x1 = 0.4001	0.116
x1 = 0.4503	0.12
x1 = 0.5001	0.123
x1 = 0.5505	0.123
x1 = 0.5998	0.121
x1 = 0.6501	0.116
x1 = 0.6999	0.109
x1 = 0.7499	0.0981
x1 = 0.8001	0.0839
x1 = 0.8503	0.0678
x1 = 0.8999	0.0488
x1 = 0.95	0.0262

CCCCCCCC [octane]
Conditions	mass density [kg/m3]
[1]	698.72

CCCCCCCCCCCCCC [tetradecane]
Conditions	mass density [kg/m3]
[1]	759.36

CCCCCCCCCCCCCC [tetradecane] + C=CCCCC
[2]
Conditions	excess molar enthalpy [kJ/mol]
x2 = 0.05	0.0258
x2 = 0.1001	0.0519
x2 = 0.1501	0.075
x2 = 0.2003	0.0952
x2 = 0.2499	0.113
x2 = 0.297	0.127
x2 = 0.3497	0.142
x2 = 0.4002	0.152
x2 = 0.4498	0.157
x2 = 0.5	0.162
x2 = 0.5497	0.162
x2 = 0.5998	0.159
x2 = 0.6495	0.152
x2 = 0.6996	0.142
x2 = 0.7502	0.128
x2 = 0.7996	0.11
x2 = 0.8498	0.0883
x2 = 0.8999	0.0629
x2 = 0.95	0.0312

Reference: the NIST ThermoML archive (doi:10.1021/je030215z)
